Test results reported in patent publication US8017807B2, “Tetrahydroxy compound, method for preparing the tetrahydroxy compound, and photoreceptor using the tetrahydroxy compound” (Ricoh Company Limited, priority 2005, dated 2011).

Columns and labels:
[1] = Solubility to alcohol (methanol), visual observation; format: physicochemical; set-up: key to Solubility to methanol, solid content 5% by weight / Solubility to methanol, solid content 10% by weight / Solubility to methanol, solid content 20% by weight / Solubility to methanol, solid content 30% by weight / Solubility to methanol, solid content 40% by weight / Solubility to methanol, solid content 50% by weight / Solubility to methanol, solid content 60% by weight: ◯: The compound is perfectly dissolved in methanol, and the resultant liquid contains no solid material.; X: The compound is imperfectly dissolved in methanol and the resultant liquid contains a solid material or is opaque (i.e., is not transparent); conditions: for Solubility to methanol, solid content 5% by weight / Solubility to methanol, solid content 10% by weight / Solubility to methanol, solid content 20% by weight / Solubility to methanol, solid content 30% by weight / Solubility to methanol, solid content 40% by weight / Solubility to methanol, solid content 50% by weight / Solubility to methanol, solid content 60% by weight: methanol solution, one hour at room temperature, visual
Method: Each of the compound of Example 1 and comparative compounds (6) to (9) was dissolved in methanol to prepare methanol solutions thereof having a solid content of 5%, 10%, 20%, 30%, 40%, 50% or 60% by weight. Alter the solutions were allowed to settle for one hour at room temperature, the solutions were visually observed to determine the solubility of the compounds to methanol. The solubility to methanol was graded as follows:
◯: The compound is perfectly dissolved in methanol, and the resultant liquid contains no solid material.
X: The compound is imperfectly dissolved in methanol and the resultant liquid contains a solid material or is opaque (i.e., is not transparent).

[2] = Crosslinked outermost layer of photoreceptor from methanol coating liquid; image formation; conditions: with methyl trimethoxy silane in methanol
Method: Preparation of Crosslinked Charge Transport Layer Using Sol-Gel Method
The following components were mixed.
The mixture was agitated for one hour at room temperature to perform a reaction. Then 53.4 mg of tris(2,4-pentanedionate)aluminum (III) was added to the mixture to prepare a coating liquid including methanol as a solvent.
The coating liquid was coated on the above-prepared charge transport layer by a spray coating method and then dried to form an outermost layer with a thickness of 2 μm. The photoreceptor was heated for 1 hour at 130° C. to crosslink the outermost layer.
The photoreceptor was set in the main body of the image forming apparatus (IMAGIO NEO) to produce images. The resultant images had good image qualities.
The procedure for preparation of the outermost layer in Applied Example 1 was repeated except that the compound of Example 1 was replaced with each of the comparative compounds (6) to (9).

[3] = Film formability when mixed 1:1 with alcohol-soluble polyamide resin (CM8000), blade-coated layer; format: physicochemical; set-up: key to Film formability: ◯: The resultant layer is transparent.; X: The resultant layer is opaque due to crystallization of the compounds or bad compatibility with the resin; conditions: for Film formability: 1:1 by weight with polyamide resin CM8000, solid content 20% by weight, 20 μm layer on aluminum plate, dried at 23° C.; for Film formability (in words): mixed with an alcohol-soluble resin
Method: In addition, each of the compound of Example 1 and comparative compounds (6) to (9) was mixed with an alcohol-soluble polyamide resin (CM8000 from Toray Industries, Inc.) in a weight ratio of 1:1 such that the solid content of the mixture is 20% by weight. Each of the mixtures was coated on an aluminum plate by a blade coating method and then dried at room temperature (23° C.) to prepare a layer with a thickness of 20 μm. The thus prepared layers were visually observed to determine the film formability of the layers. The film formability was graded as follows:
◯: The resultant layer is transparent.
X: The resultant layer is opaque due to crystallization of the compounds or bad compatibility with the resin.

[4] = Solubility to alcohol (methanol), visual observation; format: physicochemical; conditions: background section, no method given

SMILES	Solubility to methanol (in words) [1]	Solubility to methanol, solid content 5% by weight [1]	Solubility to methanol, solid content 10% by weight [1]	Solubility to methanol, solid content 20% by weight [1]	Solubility to methanol, solid content 30% by weight [1]	Solubility to methanol, solid content 40% by weight [1]	Solubility to methanol, solid content 50% by weight [1]	Solubility to methanol, solid content 60% by weight [1]	Preparation of outermost layer coating liquid in methanol [2]	Film formability [3]	Solubility to methanol (present inventors' study of prior-art compounds) [4]	Film formability (in words) [3]
Cc1ccc(N(c2ccc(C)cc2)c2ccc(C=C(c3ccc(OCCO)cc3)c3ccc(OCCO)cc3)cc2)cc1 [Comp. compound (9)]	poor solubility to methanol	X	X	X	X	X	X	X	coating liquids could not be prepared	–	–	–
CCc1ccc(N(c2ccc(CCO)cc2)c2ccc(CCO)cc2)cc1C [Comp. compound (8)]	–	◯	◯	◯	◯	X	X	X	coating liquid could be prepared	X	–	–
Cc1ccc(N(c2ccc(C)cc2)c2ccc(C(C)(c3ccc(O)cc3)c3ccc(O)cc3)cc2)cc1 [Comp. compound (6)]	poor solubility to methanol	◯	◯	◯	◯	X	X	X	coating liquids could not be prepared	X	–	–
Oc1cccc(N(c2ccccc2)c2ccc(-c3ccc(N(c4ccccc4)c4cccc(O)c4)cc3)cc2)c1 [Comp. compound (7)]	poor solubility to methanol	◯	◯	◯	X	X	X	X	coating liquids could not be prepared	X	–	–
Cc1ccc(N(c2ccc(C)cc2)c2ccc(C(C)(c3ccc(O)cc3)c3ccc(O)cc3)cc2)cc1 [1,1-bis(4-hydroxyphenyl)-1-[4-(paraditolylamino)phenyl]ethane]	–	–	–	–	–	–	–	–	–	–	insufficient	–

The next lines start with results.

Solubility to methanol (in words) [1]	Solubility to methanol, solid content 5% by weight [1]	Solubility to methanol, solid content 10% by weight [1]	Solubility to methanol, solid content 20% by weight [1]	Solubility to methanol, solid content 30% by weight [1]	Solubility to methanol, solid content 40% by weight [1]	Solubility to methanol, solid content 50% by weight [1]	Solubility to methanol, solid content 60% by weight [1]	Preparation of outermost layer coating liquid in methanol [2]	Film formability [3]	Solubility to methanol (present inventors' study of prior-art compounds) [4]	SMILES	Film formability (in words) [3]
–	–	–	–	–	–	–	–	–	–	insufficient	Oc1cccc(N(c2ccccc2)c2ccc(-c3ccc(N(c4ccccc4)c4cccc(O)c4)cc3)cc2)c1 [N,N′-diphenyl-N,N′-bis(3-hydroxyphenyl)-[1,1′-biphenyl]-4,4′-diamine]	–
as good solubility to methanol	–	–	–	–	–	–	–	–	–	–	OCC(O)COc1ccc(N(c2ccccc2)c2ccc(-c3ccc(N(c4ccccc4)c4ccc(OCC(O)CO)cc4)cc3)cc2)cc1 (stereo not shown) [Example 2, N,N′-diphenyl-N,N′-bis[4-(2,3-dihydroxypropyloxy)phenyl]benzidine]	as good solubility to methanol and film formability as the compound of Example 1
good solubility to methanol	◯	◯	◯	◯	◯	◯	◯	–	◯	–	Cc1ccc(N(c2ccc(C)cc2)c2ccc(C=C(c3ccc(OCC(O)CO)cc3)c3ccc(OCC(O)CO)cc3)cc2)cc1 (stereo not shown) [Compound of Ex. 1, N-{4-[2,2-bis(4-(2,3-dihydroxypropyloxy)phenyl)vinyl]phenyl}-N,N-bis(4-tolyl)amine]	good film formability
